Measurements: ChEMBL document CHEMBL3217477, “Synthesis and biological evaluation of substituted - and -2,3-dihydrofuran naphthoquinones as potent anticandidal agents” (Medchemcomm, 2010)
Converted amounts (≈) assume the structure as drawn.

Experiments:
Candida dubliniensis [1] = assay: Antifungal activity against Candida dubliniensis assessed as growth inhibition at 250 ug/mL after 24 hrs by hole plate diffusion method; format: functional; settings: read-out: IZ
Candida tropicalis [2] = assay: Antifungal activity against Candida tropicalis assessed as growth inhibition at 250 ug/mL after 24 hrs by hole plate diffusion method; format: functional; settings: read-out: IZ
[3] = Cytotoxicity against mouse NIH/3T3 cells assessed as dead cells at 12.5 ug/mL after 72 hrs by Alamar Blue assay relative to control; format: cell-based; settings: nih3t3, 72 h
Candida albicans [4] = assay: Antifungal activity against Candida albicans assessed as growth inhibition after 24 hrs by microbroth dilution method; format: functional
Pichia kudriavzevii [5] = assay: Antifungal activity against Candida krusei assessed as growth inhibition after 24 hrs by microbroth dilution method; format: functional
Kluyveromyces marxianus [6] = assay: Antifungal activity against Candida kefyr assessed as growth inhibition after 24 hrs by microbroth dilution method; format: functional
Candida tropicalis [7] = assay: Antifungal activity against Candida tropicalis assessed as growth inhibition after 24 hrs by microbroth dilution method; format: functional
Kluyveromyces marxianus [8] = assay: Antifungal activity against Candida kefyr assessed as growth inhibition at 250 ug/mL after 24 hrs by hole plate diffusion method; format: functional; settings: read-out: IZ
Candida dubliniensis [9] = assay: Antifungal activity against Candida dubliniensis assessed as growth inhibition after 24 hrs by microbroth dilution method; format: functional
Candida parapsilosis [10] = assay: Antifungal activity against Candida parapsilosis assessed as growth inhibition after 24 hrs by microbroth dilution method; format: functional; settings: Lodderomyces parapsilosis
Pichia kudriavzevii [11] = assay: Antifungal activity against Candida krusei assessed as growth inhibition at 250 ug/mL after 24 hrs by hole plate diffusion method; format: functional; settings: read-out: IZ
[12] = Hemolytic activity in Swiss mouse erythrocytes at 50 ug/mL after 1 hr by spectrophotometric analysis relative to control; format: ADME, cell-based, Erythrocyte; settings: read-out: Activity
Candida albicans [13] = assay: Antifungal activity against Candida albicans ATCC 90028 assessed as growth inhibition after 24 hrs by microbroth dilution method; format: functional; settings: ATCC 90028, 24 h
Candida parapsilosis [14] = assay: Antifungal activity against Candida parapsilosis assessed as growth inhibition at 250 ug/mL after 24 hrs by hole plate diffusion method; format: functional; settings: Lodderomyces parapsilosis, read-out: IZ
Candida albicans [15] = assay: Antifungal activity against Candida albicans assessed as growth inhibition at 250 ug/mL after 24 hrs by hole plate diffusion method; format: functional; settings: read-out: IZ

With `Cc1ccc(C2CC3=C(O2)c2ccccc2C(=O)C3=O)c(C)c1` (stereo not given) the zone of inhibition at 250 µg/mL (Candida dubliniensis [1]) was 4.19 mm, the zone of inhibition at 250 µg/mL (Candida tropicalis [2]) was 7.51 mm and the mortality [3] was 17%. The MIC (Candida albicans [4]) was 82.1 µM (≈ 25 µg/mL), the MIC (Pichia kudriavzevii [5]) was 5.13 µM (≈ 1.56 µg/mL) and the MIC (Kluyveromyces marxianus [6]) was 41.1 µM (≈ 12.5 µg/mL). It also gave an MIC (Candida tropicalis [7]) of 41.1 µM (≈ 12.5 µg/mL), a zone of inhibition at 250 µg/mL (Kluyveromyces marxianus [8]) of 9.28 mm and an MIC (Candida dubliniensis [9]) of 41.1 µM (≈ 12.5 µg/mL). It also gave an MIC (Candida parapsilosis [10]) of 10.3 µM (≈ 3.12 µg/mL), a zone of inhibition at 250 µg/mL (Pichia kudriavzevii [11]) of 10.8 mm and a hemolysis at 1 h, 50 ug/mL [12] of 4.37%. For the same compound, the MIC (Candida albicans [13]) was 82.1 µM (≈ 25 µg/mL), the zone of inhibition at 250 µg/mL (Candida parapsilosis [14]) was 9 mm and the zone of inhibition at 250 µg/mL (Candida albicans [15]) was 2.93 mm.
`CC1(C)CC2=C(O1)c1ccccc1C(=O)C2=O` [NOR-BETA-LAPACHONE] gave a zone of inhibition at 250 µg/mL (Candida dubliniensis [1]) of 0.1 mm, a zone of inhibition at 250 µg/mL (Candida tropicalis [2]) of 4.78 mm and a mortality [3] of 11%. It also gave an MIC (Candida albicans [4]) of 54.8 µM (≈ 12.5 µg/mL), an MIC (Pichia kudriavzevii [5]) of 110 µM (≈ 25 µg/mL) and an MIC (Kluyveromyces marxianus [6]) of 110 µM (≈ 25 µg/mL). It also gave an MIC (Candida tropicalis [7]) of 54.8 µM (≈ 12.5 µg/mL), a zone of inhibition at 250 µg/mL (Kluyveromyces marxianus [8]) of 8.27 mm and an MIC (Candida dubliniensis [9]) of 6.84 µM (≈ 1.56 µg/mL). The MIC (Candida parapsilosis [10]) was 27.4 µM (≈ 6.25 µg/mL), the zone of inhibition at 250 µg/mL (Pichia kudriavzevii [11]) was 9.01 mm and the hemolysis at 1 h, 50 ug/mL [12] was -2.4%. The MIC (Candida albicans [13]) was 110 µM (≈ 25 µg/mL), the zone of inhibition at 250 µg/mL (Candida parapsilosis [14]) was 7.41 mm and the zone of inhibition at 250 µg/mL (Candida albicans [15]) was 1.64 mm.
Compound `O=C1C(=O)c2ccccc2C2=C1CC(c1ccc(Cl)cc1)O2` (stereo not given) has a zone of inhibition at 250 µg/mL (Candida dubliniensis [1]) of 9.01 mm, a zone of inhibition at 250 µg/mL (Candida tropicalis [2]) of 2.21 mm and a mortality [3] of 0%. For the same compound, the MIC (Candida albicans [4]) was 40.2 µM (≈ 12.5 µg/mL), the MIC (Pichia kudriavzevii [5]) was 40.2 µM (≈ 12.5 µg/mL) and the MIC (Kluyveromyces marxianus [6]) was 5.02 µM (≈ 1.56 µg/mL). It also gave an MIC (Candida tropicalis [7]) of 20.1 µM (≈ 6.25 µg/mL), a zone of inhibition at 250 µg/mL (Kluyveromyces marxianus [8]) of 1.96 mm and an MIC (Candida dubliniensis [9]) of 40.2 µM (≈ 12.5 µg/mL). The MIC (Candida parapsilosis [10]) was 10.1 µM (≈ 3.12 µg/mL), the zone of inhibition at 250 µg/mL (Pichia kudriavzevii [11]) was 5.65 mm and the hemolysis at 1 h, 50 ug/mL [12] was -1.51%. The MIC (Candida albicans [13]) was 80.5 µM (≈ 25 µg/mL), the zone of inhibition at 250 µg/mL (Candida parapsilosis [14]) was 6.11 mm and the zone of inhibition at 250 µg/mL (Candida albicans [15]) was 1.5 mm.
`Cc1ccc(C2CC3=C(O2)C(=O)c2ccccc2C3=O)c(C)c1` (stereo not given) showed a zone of inhibition at 250 µg/mL (Candida dubliniensis [1]) of 2.02 mm, a zone of inhibition at 250 µg/mL (Candida tropicalis [2]) of 6.42 mm and a mortality [3] of 0%. It also gave an MIC (Candida albicans [4]) of 41.1 µM (≈ 12.5 µg/mL), an MIC (Pichia kudriavzevii [5]) of 82.1 µM (≈ 25 µg/mL) and an MIC (Kluyveromyces marxianus [6]) of 82.1 µM (≈ 25 µg/mL). For the same compound, the MIC (Candida tropicalis [7]) was 41.1 µM (≈ 12.5 µg/mL), the zone of inhibition at 250 µg/mL (Kluyveromyces marxianus [8]) was 0 mm and the MIC (Candida dubliniensis [9]) was 41.1 µM (≈ 12.5 µg/mL). For the same compound, the MIC (Candida parapsilosis [10]) was 82.1 µM (≈ 25 µg/mL), the zone of inhibition at 250 µg/mL (Pichia kudriavzevii [11]) was 9.87 mm and the hemolysis at 1 h, 50 ug/mL [12] was -0.217%. The MIC (Candida albicans [13]) was 82.1 µM (≈ 25 µg/mL), the zone of inhibition at 250 µg/mL (Candida parapsilosis [14]) was 0 mm and the zone of inhibition at 250 µg/mL (Candida albicans [15]) was 1.38 mm.
